# Assay results taken from US20250051362A1, “SUBSTITUTED FUSED HETEROCYCLIC COMPOUND, AND PREPARATION METHOD THEREFOR AND USE THEREOF” (Shanghai Annova Biotechnology Co., Ltd., priority 2021, published 2025).
# Experiments:
# ATR kinase = ATR kinase (Homo sapiens (Human), UniProt Q13535); experiment: In vitro ATR kinase inhibition assay (Mobility Shift Assay, Caliper EZ Reader); format: biochemical; conditions: for IC50: ATP concentration of Km, 4 h at 28° C.; for ATR IC50 value (ratio to Example Compound 1): ATR IC50 of comparative compound divided by that of Example Compound 1 (5.5 nM)
# Description: Experimental method: The inhibitory activity of the compounds on ATR kinase in vitro was determined by Mobility Shift Assay at an ATP concentration of Km using Caliper EZ Reader as a mobility shift assaying technology based on microfluidic chip technology.
# Experimental procedure: (1) The compounds to be tested were dissolved in DMSO and serially diluted 4× for a total of 10 concentrations; (2) 0.06 μL of the compounds at different concentrations were pipetted into a 384-well plate using an Echo pipetting system; (3) a 2× kinase solution with a concentration of 10 nM ATR kinase was prepared from the ATR kinase and the 1× kinase buffer; and a 2× substrate solution with a concentration of 6 μM 5-FAM-AK-17 and 4 μM ATP was prepared from 5-FAM-AK-17, ATP and the 1× kinase buffer; (4) 10 μL of the 2× kinase solution was added into the 384-well plate and incubated for 10 min at room temperature; 10 μL of the 2× substrate solution was then added and incubated for 4 h at 28° C.; (5) 30 μL of the termination buffer was added to terminate the reaction, and then the 384-well plate was put into the Caliper EZ Reader to read the conversion rate data.
# [1] = system: human colon cancer LoVo cells; experiment: Cell proliferation inhibition assay (CellTiter-Glo); format: cell-based; conditions: for IC50 / Emax / Max Inhibition: LoVo cells, 96 hours incubation; for Emax: Homo sapiens, read-out: Max Inhibition; for LoVo IC50 value (ratio to Example Compound 1): LoVo IC50 of comparative compound divided by that of Example Compound 1 (0.66 μM)
# From the text: Experimental method: A CellTiter-Glo cell viability assay kit was used to test the inhibitory effect of the compounds on the in vitro proliferation of human colon cancer LoVo cells.
# Experimental materials: LoVo cells (ATCC, Cat. No. CCL-29); F-12K medium (Invitrogen, Cat. No. 21127-022); fetal bovine serum (Biological Industries, Cat. No. 04-002-1A); GlutaMAX (Gibco, Cat. No. 35050-061); 0.25% trypsin-EDTA (Invitrogen, Cat. No. 25200-072); CellTiter-Glo kit (Promega, Cat. No. G7558).
# Experimental procedure: (1) F-12K medium, fetal bovine serum and GlutaMAX were formulated into a complete medium for culturing LoVo cells; (2) well-grown LoVo cells were taken, digested with trypsin and transferred to a centrifuge tube, and centrifuged; the supernatant was discarded, and cells were resuspended by adding a fresh medium and counted by a Vi-CELL XR cell counter; the density of the cell suspension was adjusted to 25,000 to 30,000 cells/mL, and the cell suspension was added at 100 μL/well in a 96-well cell culture plate, while a blank control group was set up with no cells added, and the cell culture plate was incubated in a carbon dioxide incubator overnight; (3) a DMSO solution of the compound to be tested was dispensed into the above 96-well cell culture plate using an HP D300 ultra-micro sampler, with 0.5 μL of the solution per well and 10 concentrations for each compound (3× dilution), while a DMSO control group with no compound added was set up, and the plate was continued to be incubated in a carbon dioxide incubator for 96 hours; (4) the cell culture plate was taken out and equilibrated to room temperature, with 100 μL of a CellTiter-Glo reagent added to each well, and then the plate was kept away from light, shaken for 10 minutes and then incubated for 10 minutes; (5) the cell culture plate was put into EnSpire for plate reading, and the luminescence value RLU was recorded.
# Data processing: (1) The inhibition rate was calculated from the luminescence values: “RLUDMSO” is the luminescence value of the DMSO control group without compound, “RLUblank” is the luminescence value of the blank control group without cells, and “RLUcompound” is the luminescence value of the compound test group, and the inhibition rate=[1−(RLUcompound−RLUblank)/(RLUDMSO−RLUblank)]×100%; (2) with curve fitting using the Excel add-on XLFit, the IC50 value was calculated.
# Sequence of ATR kinase (Q13535 whole entry): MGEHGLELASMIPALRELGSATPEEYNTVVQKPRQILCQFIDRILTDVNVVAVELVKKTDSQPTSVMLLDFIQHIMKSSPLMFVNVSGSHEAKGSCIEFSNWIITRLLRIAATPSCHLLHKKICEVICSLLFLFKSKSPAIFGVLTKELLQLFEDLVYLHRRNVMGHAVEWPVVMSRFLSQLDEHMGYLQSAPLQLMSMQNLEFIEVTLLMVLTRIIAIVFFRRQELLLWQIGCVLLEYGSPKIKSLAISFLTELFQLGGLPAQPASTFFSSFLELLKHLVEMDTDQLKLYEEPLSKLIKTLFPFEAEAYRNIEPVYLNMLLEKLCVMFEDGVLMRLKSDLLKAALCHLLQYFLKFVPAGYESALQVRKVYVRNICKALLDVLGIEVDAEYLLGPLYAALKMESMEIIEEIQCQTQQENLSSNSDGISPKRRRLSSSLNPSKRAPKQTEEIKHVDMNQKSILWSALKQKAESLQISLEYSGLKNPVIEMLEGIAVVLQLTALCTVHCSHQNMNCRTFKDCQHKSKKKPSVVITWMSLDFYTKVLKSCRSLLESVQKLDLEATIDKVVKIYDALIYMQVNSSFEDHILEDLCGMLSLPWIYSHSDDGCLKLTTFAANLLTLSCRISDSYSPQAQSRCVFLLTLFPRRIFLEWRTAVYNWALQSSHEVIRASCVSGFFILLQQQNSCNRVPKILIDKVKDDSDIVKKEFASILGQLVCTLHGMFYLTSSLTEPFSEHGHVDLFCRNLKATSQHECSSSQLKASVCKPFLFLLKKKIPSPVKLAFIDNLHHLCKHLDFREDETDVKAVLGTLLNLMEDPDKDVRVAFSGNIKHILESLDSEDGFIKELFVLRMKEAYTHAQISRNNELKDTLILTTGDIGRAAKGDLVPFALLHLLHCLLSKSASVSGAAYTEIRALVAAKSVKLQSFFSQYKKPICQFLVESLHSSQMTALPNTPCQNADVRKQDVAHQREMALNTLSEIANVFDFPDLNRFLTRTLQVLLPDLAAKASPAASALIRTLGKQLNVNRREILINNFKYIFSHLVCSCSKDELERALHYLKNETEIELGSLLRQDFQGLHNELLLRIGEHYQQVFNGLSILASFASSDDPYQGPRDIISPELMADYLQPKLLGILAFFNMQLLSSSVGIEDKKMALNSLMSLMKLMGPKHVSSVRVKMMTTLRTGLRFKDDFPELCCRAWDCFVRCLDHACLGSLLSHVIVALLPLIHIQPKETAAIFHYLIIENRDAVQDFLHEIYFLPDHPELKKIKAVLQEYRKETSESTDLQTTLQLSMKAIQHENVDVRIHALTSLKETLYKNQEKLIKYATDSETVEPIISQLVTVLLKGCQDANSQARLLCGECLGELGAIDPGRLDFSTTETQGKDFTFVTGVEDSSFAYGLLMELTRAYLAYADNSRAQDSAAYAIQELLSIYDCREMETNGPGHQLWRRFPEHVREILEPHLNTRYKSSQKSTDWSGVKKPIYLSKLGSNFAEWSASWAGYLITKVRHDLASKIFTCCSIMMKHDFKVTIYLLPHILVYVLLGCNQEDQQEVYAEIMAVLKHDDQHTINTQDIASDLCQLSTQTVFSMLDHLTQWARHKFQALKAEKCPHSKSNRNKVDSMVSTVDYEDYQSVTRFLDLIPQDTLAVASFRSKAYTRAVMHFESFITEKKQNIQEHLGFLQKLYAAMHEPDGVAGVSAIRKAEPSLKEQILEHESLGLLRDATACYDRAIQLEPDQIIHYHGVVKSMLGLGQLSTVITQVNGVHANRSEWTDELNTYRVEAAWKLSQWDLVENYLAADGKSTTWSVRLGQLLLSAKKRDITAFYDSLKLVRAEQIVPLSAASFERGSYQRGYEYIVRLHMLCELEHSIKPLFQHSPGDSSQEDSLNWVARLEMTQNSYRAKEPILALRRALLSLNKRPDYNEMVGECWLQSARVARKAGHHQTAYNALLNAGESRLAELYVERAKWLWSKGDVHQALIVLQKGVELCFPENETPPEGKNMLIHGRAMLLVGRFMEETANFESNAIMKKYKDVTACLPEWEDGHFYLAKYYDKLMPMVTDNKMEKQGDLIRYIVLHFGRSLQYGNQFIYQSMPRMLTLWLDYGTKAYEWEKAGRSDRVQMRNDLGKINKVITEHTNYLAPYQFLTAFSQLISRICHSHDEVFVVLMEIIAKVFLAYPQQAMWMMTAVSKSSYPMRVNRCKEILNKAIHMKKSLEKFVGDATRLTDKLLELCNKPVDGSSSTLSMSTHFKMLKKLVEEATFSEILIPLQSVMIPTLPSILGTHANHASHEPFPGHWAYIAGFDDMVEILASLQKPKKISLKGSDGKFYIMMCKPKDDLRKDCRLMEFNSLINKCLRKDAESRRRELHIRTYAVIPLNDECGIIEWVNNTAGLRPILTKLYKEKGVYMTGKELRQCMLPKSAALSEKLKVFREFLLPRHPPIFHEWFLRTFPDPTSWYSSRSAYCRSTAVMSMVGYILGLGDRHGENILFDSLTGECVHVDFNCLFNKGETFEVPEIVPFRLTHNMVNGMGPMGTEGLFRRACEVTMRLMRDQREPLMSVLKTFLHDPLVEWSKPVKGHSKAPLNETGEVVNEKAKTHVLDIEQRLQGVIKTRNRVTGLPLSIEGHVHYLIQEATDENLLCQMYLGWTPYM
# Sequence of ATR kinase (Q8WXE1 whole entry partner): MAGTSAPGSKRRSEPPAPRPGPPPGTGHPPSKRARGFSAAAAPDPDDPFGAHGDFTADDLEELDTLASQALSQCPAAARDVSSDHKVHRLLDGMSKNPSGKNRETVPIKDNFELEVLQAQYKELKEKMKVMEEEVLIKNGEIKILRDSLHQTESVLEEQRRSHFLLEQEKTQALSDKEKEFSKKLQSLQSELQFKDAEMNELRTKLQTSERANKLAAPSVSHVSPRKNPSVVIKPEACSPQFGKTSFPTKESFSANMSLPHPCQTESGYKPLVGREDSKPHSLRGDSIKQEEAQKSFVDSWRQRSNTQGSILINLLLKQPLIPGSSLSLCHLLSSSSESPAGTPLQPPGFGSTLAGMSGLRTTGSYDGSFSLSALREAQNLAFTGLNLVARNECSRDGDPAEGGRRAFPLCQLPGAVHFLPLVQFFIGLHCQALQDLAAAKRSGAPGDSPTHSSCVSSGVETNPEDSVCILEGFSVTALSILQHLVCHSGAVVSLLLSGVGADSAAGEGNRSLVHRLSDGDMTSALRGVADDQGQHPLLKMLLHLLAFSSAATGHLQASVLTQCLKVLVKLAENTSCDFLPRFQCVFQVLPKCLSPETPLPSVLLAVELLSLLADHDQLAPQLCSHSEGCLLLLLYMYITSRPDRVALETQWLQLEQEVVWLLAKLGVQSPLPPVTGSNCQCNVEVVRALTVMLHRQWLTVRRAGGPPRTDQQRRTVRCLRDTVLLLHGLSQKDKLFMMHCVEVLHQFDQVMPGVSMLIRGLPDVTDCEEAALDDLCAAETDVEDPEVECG
SMILES,IC50 (ATR kinase) [nM],also measured
"C[C@@H]1COCCN1c1cc(-c2ccnc3[nH]ccc23)nc2c1ccn2S(C)(=O)=O [Compound 1, (R)-3-methyl-4-(1′-(methylsulfonyl)-1H,1′H-[4,6′-dipyrrolo[2,3-b]pyridin]-4′-yl)morpholine]",5.5,IC50 [1]: 660 nM
"C[C@@H]1COCCN1c1cc(-c2ccnc3[nH]ccc23)nc2c1ccn2C [Compound 2′, reference compound]",63,–
"C[C@@H]1COCCN1c1cc(-c2cnc3[nH]ccc3c2)nc2c1ccn2S(C)(=O)=O [Compound 4, (R)-3-methyl-4-(1′-(methylsulfonyl)-1H,1′H-[5,6′-dipyrrolo[2,3-b]pyridin]-4′-yl)morpholine]",208,–
"C[C@@H]1COCCN1c1cc(-c2c[nH]c3ncccc23)nc2c1ccn2S(C)(=O)=O [Compound 5, (R)-3-methyl-4-(1′-(methylsulfonyl)-1H,1′H-[3,6′-dipyrrolo[2,3-b]pyridin]-4′-yl)morpholine]",534,–
"Cc1c[nH]c2nccc(-c3cc(N4CCOC[C@H]4C)c4ccn(S(C)(=O)=O)c4n3)c12 [Compound 6, (R)-3-methyl-4-(3-methyl-1′-(methylsulfonyl)-1H,1′H-[4,6′-dipyrrolo[2,3-b]pyridin]-4′-yl)morpholine]",188,–
"C[C@@H]1COCCN1c1cc(-c2ccnc3[nH]ccc23)c2ccn(S(C)(=O)=O)c2n1 [Compound 6′, reference compound]",268,–
"C[C@@H]1COCCN1c1cc(-c2ccc(F)c3[nH]ccc23)nc2c1ccn2S(C)(=O)=O [Compound 8, (R)-4-(6-(7-fluoro-1H-indol-4-yl)-1-(methylsulfonyl)-1H-pyrrolo[2,3-b]pyridin-4-yl)-3-methylmorpholine]",78,–
"C[C@@H]1COCCN1c1cc(-c2ccn[nH]2)nc2c1ccn2S(C)(=O)=O [Compound 9, (R)-3-methyl-4-(1-(methylsulfonyl)-6-(1H-pyrazol-5-yl)-1H-pyrrolo[2,3-b]pyridin-4-yl)morpholine]",311,–
"C[C@@H]1COCCN1c1cc(-c2cn[nH]c2)nc2c1ccn2S(C)(=O)=O [Compound 10, (R)-3-methyl-4-(1-(methylsulfonyl)-6-(1H-pyrazol-4-yl)-1H-pyrrolo[2,3-b]pyridin-4-yl)morpholine]",843,–
"C[C@@H]1COCCN1c1cc(-c2nc3ccccc3[nH]2)nc2c1ccn2S(C)(=O)=O [Compound 11, (R)-4-(6-(1H-benzo[d]imidazol-2-yl)-1-(methylsulfonyl)-1H-pyrrolo[2,3-b]pyridin-4-yl)-3-methylmorpholine]",823,–
"C[C@@H]1COCCN1c1cc(-c2ncnc3[nH]ccc23)nc2c1ccn2S(C)(=O)=O [Compound 12, (R)-3-methyl-4-(1-(methylsulfonyl)-6-(7H-pyrrolo[2,3-d]pyrimidin-4-yl)-1H-pyrrolo[2,3-b]pyridin-4-yl)-morpholine]",130,–
"C[C@@H]1COCCN1c1cc(-c2ccnc3[nH]cnc23)nc2c1ccn2S(C)(=O)=O [Compound 13, (R)-4-(6-(3H-imidazo[4,5-b]pyridin-7-yl)-1-(methylsulfonyl)-1H-pyrrolo[2,3-b]pyridin-4-yl)-3-methylmorpholine]",196,–

# Continued by falling IC50 (ATR kinase), values first:
IC50 (ATR kinase) [nM],SMILES,also measured
35,"CC(C)S(=O)(=O)n1ccc2c(N3CCOC[C@H]3C)cc(-c3ccnc4[nH]ccc34)nc21 [Compound 14, (R)-4-(1′-(isopropylsulfonyl)-1H,1′H-[4,6′-dipyrrolo[2,3-b]pyridin]-4′-yl)-3-methylmorpholine]",IC50 [1]: 2130 nM; Max Inhibition [1]: 93%
31,"C[C@@H]1COCCN1c1nc(-c2cncc3[nH]ccc23)nc2c1ccn2C [Compound 3′, reference compound]",–
28,"CC(n1cnc2c(N3CCOC[C@H]3C)nc(-c3cncc4[nH]ccc34)cc21)S(C)(=O)=O (some centres unmarked) [Compound 7′, reference compound]",–
20,"C[C@@H]1COCCN1c1cc(-c2ccnc3[nH]ccc23)nc2c1ccn2CS(C)(=O)=O [Compound 4′, reference compound]",ATR IC50 value (ratio to Example Compound 1) (ATR kinase): 20/5.5 = 3.64; LoVo IC50 value (ratio to Example Compound 1) [1]: 2.34/0.66 = 3.55
17,"C[C@@H]1COCCN1c1cc(-c2ccnc3[nH]ccc23)nc2c1ccn2S(=O)(=O)N(C)C [Compound 16, (R)-N,N-dimethyl-4′-(3-methylmorpholinyl)-1H,1′H-[4,6′-dipyrrolo[2,3-b]pyridine]-1′-sulfamide]",IC50 [1]: 1820 nM; Max Inhibition [1]: 93%
15,"CC(n1ccc2c(N3CCOC[C@H]3C)cc(-c3ccnc4[nH]ccc34)nc21)S(C)(=O)=O (some centres unmarked) [Compound 5′, reference compound]",ATR IC50 value (ratio to Example Compound 1) (ATR kinase): 15/5.5 = 2.73; LoVo IC50 value (ratio to Example Compound 1) [1]: 1.88/0.66 = 2.85
12,"C[C@@H]1COCCN1c1cc(-c2ccnc3[nH]ccc23)nc2c1ccn2S(=O)(=O)C1CC1 [Compound 15, (R)-4-(1′-(cyclopropylsulfonyl)-1H,1′H-[4,6′-dipyrrolo[2,3-b]pyridin]-4′-yl)-3-methylmorpholine]",IC50 [1]: 1270 nM; Max Inhibition [1]: 94%
10,"C[C@@H]1COCCN1c1cc(-c2cncc3[nH]ccc23)nc2c1ccn2S(C)(=O)=O [Compound 3, (R)-3-methyl-4-(1-(methylsulfonyl)-6-(1H-pyrrolo[2,3-c]pyridin-4-yl)-1H-pyrrolo[2,3-b]pyridin-4-yl)morpholine]",Emax [1]: 93%
4.4,"C[C@@H]1COCCN1c1nc(-c2ccnc3[nH]ccc23)nc2c1ccn2S(=O)(=O)CCO [Compound 21, (R)-2-((4-(3-methylmorpholinyl)-2-(1H-pyrrolo[2,3-b]pyridin-4-yl)-7H-pyrrolo[2,3-d]pyrimidin-7-yl)sulfonyl)ethanol]",IC50 [1]: 710 nM; Max Inhibition [1]: 92%
4.2,"C[C@@H]1COCCN1c1cc(-c2cccc3[nH]ccc23)nc2c1ccn2S(C)(=O)=O [Compound 2, (R)-4-(6-(1H-indol-4-yl)-1-(methylsulfonyl)-1H-pyrrolo[2,3-b]pyridin-4-yl)-3-methylmorpholine]",Emax [1]: 94%
3.2,"C[C@@H]1COCCN1c1cc(-c2cc(F)cc3[nH]ccc23)nc2c1ccn2S(C)(=O)=O [Compound 7, (R)-4-(6-(6-fluoro-1H-indol-4-yl)-1-(methylsulfonyl)-1H-pyrrolo[2,3-b]pyridin-4-yl)-3-methylmorpholine]",Emax [1]: 95%
2.3,"C[C@@H]1COCCN1c1nc(-c2cccc3[nH]ccc23)nc2c1ccn2S(C)(=O)=O [Compound 18, (R)-4-(2-(1H-indol-4-yl)-7-(methylsulfonyl)-7H-pyrrolo[2,3-d]pyrimidin-4-yl)-3-methylmorpholine]",Emax [1]: 92%
1.6,"C[C@@H]1COCCN1c1nc(-c2ccnc3[nH]ccc23)nc2c1ccn2S(C)(=O)=O [Compound 17, (R)-3-methyl-4-(7-(methylsulfonyl)-2-(1H-pyrrolo[2,3-b]pyridin-4-yl)-7H-pyrrolo[2,3-d]pyrimidin-4-yl)morpholine]",Emax [1]: 93%
1.6,"C[C@@H]1COCCN1c1nc(-c2cncc3[nH]ccc23)nc2c1ccn2S(C)(=O)=O [Compound 19, (R)-3-methyl-4-(7-(methylsulfonyl)-2-(1H-pyrrolo[2,3-c]pyridin-4-yl)-7H-pyrrolo[2,3-d]pyrimidin-4-yl)morpholine]",Emax [1]: 90%
1.6,"C[C@@H]1COCCN1c1nc(-c2cc(F)cc3[nH]ccc23)nc2c1ccn2S(C)(=O)=O [Compound 20, (R)-4-(2-(6-fluoro-1H-indol-4-yl)-7-(methylsulfonyl)-7H-pyrrolo[2,3-d]pyrimidin-4-yl)-3-methylmorpholine]",Emax [1]: 91%
